SMILES strings stand for the structures.

In data set [1] the test system is α-glucosidase. Nature of the data set: HPLC activity-based profiling (microfractionation) of A. asiatica extract for α-glucosidase inhibition. It counts as biochemical, Saccharomyces cerevisiae. The note with it: microfractions of A. asiatica extract, main inhibition window 11.5 to 13.5 min. As to the method:
Aliquots (100 µL) of A. asiatica extract solution (10 mg/mL) were separated under analytical HPLC conditions as described in Section 2.4. The collection of eluates (40 µL) performed every 30 s in 96-well plates. After drying and redissolving the eluates in 10 µL of PBS the eluates were investigated as described earlier. α-Glucosidase was dissolved in PBS which contained BSA (0.2%) up to 0.5 U/mL concentration and then added 125 µL of PBS and 60 µL p-nitrophenyl-α-D-glucopyranoside (5 mM). The samples were incubated at 37 °C for 5 min and then 60 µL α-glucosidase (0.4 U/mL) was added. The samples were incubated at 37 °C for 15 min. Then 50 µL sodium carbonate (200 mM) was added. Absorbance (A400) was determined at 400 nm. The rates (1-A400) were carried out to create HPLC-based bioactivity profiles of A. asiatica extract.
To characterize the chemical profile of A. asiatica herb extract microcolumn reversed-phase HPLC-PDA procedure was applied (Figure 3a). […] For identification, the components of interest of A. asiatica herb with high α-glucosidase inhibitory activity, the extract was subjected by HPLC activity-based profiling. To detect of anti-α-glucosidase inhibitors in A. asiatica herb extract, the procedure of small-scale semi-preparative microfractionation by reversed-phase HPLC was applied. […] Subsequently, microfractions were dried and redissolved in a buffer solution. Thereafter, an enzyme solution was added to estimate the inhibition of α-glucosidase by the eluate.

For data set [2], the system named is α-glucosidase. The arrangement: method as in PMID 28045450. As to conditions: agrimoniin from Comarum palustre herb extract; cited from earlier work.
Data set [3] in a line: Stability of A. asiatica phenolics in water media (infusions and decoctions, HPLC-MS quantification). It counts as physicochemical. The note with it: boiling infusion (100 °C) and decoctions. As to the method:
Quantification of compounds 1–60 were carried out using HPLC-MS data (full scan MS, peak area). The quantifications were realized under the conditions specified in Section 2.4. For the preparation of the stock solutions, 44 reference compounds (2, 6–16, 19, 23, 26, 28, 31–51, 53–56, 58–60) were carefully weighed (10 mg), then separately dissolved in methanol in a W flask (10 mL). An external standard calibration curve was constructed with the use of six data points (100, 50, 25, 10, 5, and 1 µg/mL). The calibration curves were constructed by plotting the MS peak area vs. concentration levels. Correlation coefficients, r^2; standard deviation, SYX; limits of detection, LOD; limits of quantification, LOQ; linear ranges were computed applying early reference. All analyses were performed in triplicate, data obtained were expressed as mean value ± standard deviation (SD). […] The weight of the tube was reduced to an initial sign after cooling. For analysis, the extract obtained was filtered through 0.22 μm polytetrafluoroethylene (PTFE) syringe filter and then injected into the HPLC system. […]

Take `O=C(O[C@H]1O[C@@H]2COC(=O)c3cc(O)c(O)c(O)c3-c3c(cc(O)c(O)c3O)C(=O)O[C@H]2[C@@H]2OC(=O)c3cc(O)c(O)c(O)c3-c3c(cc(O)c(O)c3O)C(=O)O[C@@H]12)c1cc(O)c(O)c(Oc2c(C(=O)O[C@H]3O[C@@H]4COC(=O)c5cc(O)c(O)c(O)c5-c5c(cc(O)c(O)c5O)C(=O)O[C@H]4[C@@H]4OC(=O)c5cc(O)c(O)c(O)c5-c5c(cc(O)c(O)c5O)C(=O)O[C@@H]34)cc(O)c(O)c2O)c1` [Compound 36, Agrimoniin]: the “α-glucosidase inhibition of HPLC peaks” value in the data set with α-glucosidase [1] is given as “most pronounced inhibition”. Besides, the “inhibitory activity relative to α-glucosidase” value in the data set on α-glucosidase [2] is recorded as “high inhibitory activity”. For the compound `O=c1c(O[C@@H]2O[C@H](CO)[C@@H](O)[C@H](O)[C@H]2O)c(-c2ccc(O)c(O)c2)oc2cc(O)cc(O)c12` [Compound 41, Quercetin-3-O-glucoside], the “α-glucosidase inhibition of HPLC peaks” value with α-glucosidase [1] (listed as isoquercitrin) is “less significant results of inhibition”.

On to `O=C(O)CC(=O)OCC1OC(Oc2cc(-c3cc(=O)c4c(O)cc(O)cc4o3)ccc2O)C(O)C(O)C1O` (stereo not drawn) [Compound 53, Luteolin-3-O-(6″-O-malonyl)-glucoside], for which the “content change on heat treatment in water” value in data set [3] was “decreased to trace amounts”. On to `O=c1oc2c(O)c(O)cc3c(=O)oc4c(O)c(O)cc1c4c23` [Compound 38, Ellagic acid], for which, in the data set with α-glucosidase [1], the “α-glucosidase inhibition of HPLC peaks” value was “less significant results of inhibition”.

Regarding `O=C(O)CC(=O)OC[C@H]1O[C@@H](Oc2c(-c3ccc(O)c(O)c3)oc3cc(O)cc(O)c3c2=O)[C@H](O)[C@@H](O)[C@@H]1O` [Compound 45, Quercetin-3-O-(6″-O-malonyl)-glucoside], the “content change on heat treatment in water” value in data set [3] was “decreased to trace amounts”.
